How the values were obtained:
[1] = DRUGMATRIX: Calcium Channel Type L, Phenylalkylamine radioligand binding (ligand: [3H] (-)-Desmethoxyverapamil (D-888)); assay type: cell membranes, Rattus norvegicus, Wistar, Brain, Membrane; conditions: Not Active = under 50% inhibition at 10 µM
[2] = DRUGMATRIX: Imidazoline I2, Central radioligand binding (ligand: [3H] Idazoxan); assay type: cell membranes, Rattus norvegicus, Wistar, Cerebral cortex, Membrane; conditions: Not Active = under 50% inhibition at 10 µM
[3] = target: T1, Muscarinic acetylcholine receptor M2 (Homo sapiens, UniProt P08172); assay type: cell membranes, CHO-K1, Membrane; further: in other assays of this panel Not Active means under 50% inhibition at 10 µM
T1 sequence (P08172 whole entry): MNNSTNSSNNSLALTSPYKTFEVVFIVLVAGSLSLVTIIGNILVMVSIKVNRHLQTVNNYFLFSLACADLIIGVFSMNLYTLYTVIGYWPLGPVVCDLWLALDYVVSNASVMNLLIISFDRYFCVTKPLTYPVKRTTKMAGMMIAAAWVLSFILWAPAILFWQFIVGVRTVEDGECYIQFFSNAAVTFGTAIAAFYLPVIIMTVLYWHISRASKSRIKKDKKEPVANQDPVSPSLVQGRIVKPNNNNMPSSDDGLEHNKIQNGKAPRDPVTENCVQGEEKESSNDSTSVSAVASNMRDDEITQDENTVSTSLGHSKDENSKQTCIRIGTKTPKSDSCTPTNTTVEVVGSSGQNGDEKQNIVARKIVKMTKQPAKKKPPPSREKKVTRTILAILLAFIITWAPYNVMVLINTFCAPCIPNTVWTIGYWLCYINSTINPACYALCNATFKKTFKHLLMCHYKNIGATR

[4] = DRUGMATRIX: Nicotinic Acetylcholine radioligand binding (ligand: [125I] Epibatidine); assay type: cell membranes, Membrane; conditions: imr-32; Not Active = under 50% inhibition at 10 µM
[5] = DRUGMATRIX: Potassium Channel [KATP] radioligand binding (ligand: [3H] Glyburide); assay type: cell membranes, Membrane; conditions: hit-t15; Not Active = under 50% inhibition at 10 µM
[6] = target: Tyrosine-protein kinase Fyn (Homo sapiens, UniProt P06241); assay: biochemical; assay type: cell-based, Insect cells;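 further: enzymatic inhibition of Fyn kinase activity measured with Poly(Glu:Tyr) as the phosphorylation substrate; in other assays of this panel Not Active means under 50% inhibition at 10 µM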
Chain of Tyrosine-protein kinase Fyn (P06241 whole entry): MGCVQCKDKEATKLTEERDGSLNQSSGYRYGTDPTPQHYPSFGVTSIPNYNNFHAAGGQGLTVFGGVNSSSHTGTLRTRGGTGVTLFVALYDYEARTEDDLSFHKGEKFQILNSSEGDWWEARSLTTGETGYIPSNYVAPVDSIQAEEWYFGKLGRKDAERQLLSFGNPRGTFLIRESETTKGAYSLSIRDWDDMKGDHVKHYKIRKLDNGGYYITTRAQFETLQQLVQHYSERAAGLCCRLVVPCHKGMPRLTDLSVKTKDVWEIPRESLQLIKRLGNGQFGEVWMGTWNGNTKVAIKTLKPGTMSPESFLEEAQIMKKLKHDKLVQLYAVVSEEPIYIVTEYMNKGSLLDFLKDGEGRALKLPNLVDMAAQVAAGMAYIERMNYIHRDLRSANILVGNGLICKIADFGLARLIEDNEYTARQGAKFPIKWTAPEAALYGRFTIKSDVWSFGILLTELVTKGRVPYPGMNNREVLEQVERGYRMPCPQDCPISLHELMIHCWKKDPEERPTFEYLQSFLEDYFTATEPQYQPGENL

## O=c1ncn2nc(Sc3ccc(F)cc3F)ccc2c1-c1c(Cl)cccc1Cl [NEFLAMAPIMOD]
[1]
  IC50: Not Active
  Ki: Not Active
[2]
  IC50: Not Active
  Ki: Not Active
[3]; cho-k1
  IC50: Not Active
[4]
  IC50: Not Active
  Ki: Not Active
[5]
  IC50: Not Active
  Ki: Not Active
[6]; insect cells
  IC50: Not Active

## CN1CCN(CCCN2c3ccccc3Sc3ccc(Cl)cc32)CC1 [PROCHLORPERAZINE]
[6]; read-out: IC50
  IC50: 5.68 µM

## CO[C@H]1/C=C/O[C@@]2(C)Oc3c(C)c(O)c4c(O)c(c(/C=N/N5CCN(C)CC5)c(O)c4c3C2=O)NC(=O)/C(C)=C\C=C\[C@H](C)[C@H](O)[C@@H](C)[C@@H](O)[C@@H](C)[C@H](OC(C)=O)[C@@H]1C [RIFAMPIN]
[1]
  IC50: Not Active
  Ki: Not Active
[2]
  IC50: Not Active
  Ki: Not Active
[3]; cho-k1
  IC50: Not Active
[4]
  IC50: Not Active
  Ki: Not Active
[5]
  IC50: Not Active
  Ki: Not Active
[6]; insect cells
  IC50: Not Active

## Nc1nc2ccc(OC(F)(F)F)cc2s1 [RILUZOLE]
[1]
  IC50: Not Active
  Ki: Not Active
[2]
  IC50: Not Active
  Ki: Not Active
[3]; cho-k1
  IC50: Not Active
[4]
  IC50: Not Active
  Ki: Not Active
[5]
  IC50: Not Active
  Ki: Not Active
[6]; insect cells
  IC50: Not Active

## Cc1nc2n(c(=O)c1CCN1CCC(c3noc4cc(F)ccc34)CC1)CCCC2 [RISPERIDONE]
[3]; cho-k1
  IC50: Not Active
[6]; insect cells
  IC50: Not Active

## C=CCC1(C(C)CCC)C(=O)NC(=O)NC1=O (stereo unspecified) [SECOBARBITAL]
[1]
  IC50: Not Active
  Ki: Not Active
[2]
  IC50: Not Active
  Ki: Not Active
[3]; cho-k1
  IC50: Not Active
[4]
  IC50: Not Active
  Ki: Not Active
[5]
  IC50: Not Active
  Ki: Not Active
[6]; insect cells
  IC50: Not Active

## C[C@@H]1CN(c2c(F)c(N)c3c(=O)c(C(=O)O)cn(C4CC4)c3c2F)C[C@H](C)N1 [SPARFLOXACIN]
[1]
  IC50: Not Active
  Ki: Not Active
[2]
  IC50: Not Active
  Ki: Not Active
[3]; cho-k1
  IC50: Not Active
[4]
  IC50: Not Active
  Ki: Not Active
[5]
  IC50: Not Active
  Ki: Not Active
[6]; insect cells
  IC50: Not Active

## Cc1noc(NS(=O)(=O)c2ccc(N)cc2)c1C [SULFISOXAZOLE]
[1]
  IC50: Not Active
  Ki: Not Active
[2]
  IC50: Not Active
  Ki: Not Active
[3]; cho-k1
  IC50: Not Active
[4]
  IC50: Not Active
  Ki: Not Active
[5]
  IC50: Not Active
  Ki: Not Active
[6]; insect cells
  IC50: Not Active

## CSc1ccc(/C=C2/C(C)=C(CC(=O)O)c3cc(F)ccc32)cc1 [SULINDAC SULFIDE]
[1]
  IC50: Not Active
  Ki: Not Active
[2]
  IC50: Not Active
  Ki: Not Active
[3]; cho-k1
  IC50: Not Active
[4]
  IC50: Not Active
  Ki: Not Active
[5]
  IC50: Not Active
  Ki: Not Active
[6]; insect cells
  IC50: Not Active

## Nc1c2c(nc3ccccc13)CCCC2 [TACRINE]
[1]
  IC50: Not Active
  Ki: Not Active
[2]
  IC50: Not Active
  Ki: Not Active
[3]; cho-k1
  IC50: Not Active
[4]
  IC50: Not Active
  Ki: Not Active
[5]
  IC50: Not Active
  Ki: Not Active
[6]; insect cells
  IC50: Not Active

## CC/C(=C(\c1ccccc1)c1ccc(OCCN(C)C)cc1)c1ccccc1 [TAMOXIFEN]
[6]; read-out: IC50
  IC50: 1.2 µM

## CC(C)N1CCN(c2ccc(OCC3COC(Cn4cncn4)(c4ccc(Cl)cc4Cl)O3)cc2)CC1 (stereo unspecified) [TERCONAZOLE]
[1]; read-out: IC50
  IC50: 3.46 µM
[1]; read-out: Ki
  Ki: 3.36 µM
[2]; read-out: IC50
  IC50: 2.23 µM
[2]; read-out: Ki
  Ki: 1.48 µM
[3]; read-out: IC50
  IC50: 12.9 µM
[3]; read-out: Ki
  Ki: 4.59 µM
[5]
  IC50: Not Active
  Ki: Not Active
[6]; read-out: IC50
  IC50: 10.9 µM

## Nc1nc2nc[nH]c2c(=S)[nH]1 [THIOGUANINE]
[1]
  IC50: Not Active
  Ki: Not Active
[2]
  IC50: Not Active
  Ki: Not Active
[3]; cho-k1
  IC50: Not Active
[4]
  IC50: Not Active
  Ki: Not Active
[6]; insect cells
  IC50: Not Active

## Cc1cccc(N(C)C(=S)Oc2ccc3ccccc3c2)c1 [TOLNAFTATE]
[1]
  IC50: Not Active
  Ki: Not Active
[2]
  IC50: Not Active
  Ki: Not Active
[3]; cho-k1
  IC50: Not Active
[4]
  IC50: Not Active
  Ki: Not Active
[5]
  IC50: Not Active
  Ki: Not Active
[6]; insect cells
  IC50: Not Active

## NC[C@H]1CC[C@H](C(=O)O)CC1 [TRANEXAMIC ACID]
[1]
  IC50: Not Active
  Ki: Not Active
[2]
  IC50: Not Active
  Ki: Not Active
[3]; cho-k1
  IC50: Not Active
[4]
  IC50: Not Active
  Ki: Not Active
[5]
  IC50: Not Active
  Ki: Not Active
[6]; insect cells
  IC50: Not Active

Source: ChEMBL document CHEMBL1909046, “DrugMatrix in vitro pharmacology data”
